Assay results taken from patent US20150011623A1, “Pharmaceutical Composition Containing as Active Ingredient Extract From Bark of Liriodendron Tulipifera” (CHO DANG PHARM CO., LTD., priority 2012, published 2015).
Marks after values point to notes of the source that are not given here.

Tested on: acetic acid inducing stomach ulcer model
Experiment: acetic acid inducing stomach ulcer model
Format: in vivo, male white rats
Settings: for gastric lesion area: oral 30 mg/kg once a day for 10 days after operation; for lesion inhibition rate: oral 30 mg/kg once a day for 10 days, vs control group
Text: Efficacy of extract from bark of Liriodendron tulipifera obtained in Preparation Example 1 has been measured according to acetic acid inducing stomach ulcer model. Only solvent has been administered into control group, while extract from the bark of Liriodendron tulipifera has been administered into experimental group. Further, ranitidine and rebamipide used for drug for treating stomach ulcer have been also administered into experimental group. The experiment has been carried out according to the method disclosed in Okabe and Pfeifferi, Did. Dis. 17, pp. 619-628, 1972. 250 g weights of male white rats have been anesthetized with ether and the stomach has been exposed. 50 μl of 20% acetic acid has been injected into the subserosa in fundus of stomach using microliter syringe. Then, the abdomen of rat has been sutured. The drug has been orally administered into the rats at 10:00 am once a day for 10 days after operation. After 4 hour from final administration, animals have been sacrificed by ether. After removing the stomach of rat, the stomach has been spread out. The lesion area has been measured using the photo from digital camera. Computer program Image J 1.38 (NIH, Bethesda, Md.) has been applied for measuring gastric lesion area (mm^2) The lesion inhibition rate and 50% effective dose (ED50) have been calculated as the same manner of HCl-EtOH model.

CNC(=C[N+](=O)[O-])NCCSCc1ccc(CN(C)C)o1 [ranitidine]
gastric lesion area: 34.8 ± 4.83* mm^2 | lesion inhibition rate: 47.1%

O=C(NC(Cc1cc(=O)[nH]c2ccccc12)C(=O)O)c1ccc(Cl)cc1 (stereo not shown) [rebamipide]
gastric lesion area: 40.1 ± 7.43 mm^2 | lesion inhibition rate: 39.1%
